The nature of data set [1]: Distribution of clomethiazole between glyceryl monooleate cubic phase bilayer and water phase (water or citrate buffer). The data set is classed as physicochemical. The following applies: 120 h; for Kbl/w, eq. (4) / kbl/w, eq. (4): fw=0.4. The method, then:
The distribution of a substance X between lipids and water in the system is depicted by the following distribution coefficient.
Kbilayer/water=Kbl/w=[X]lipid/[X]water (1),
If both the water phase and the cubic phase are analyzed with reference to their content of the substance X the following distribution coefficient can be determined Kcubic phase/water=KQ/w=[X]Q/[X]w (3), in which [X]Q is the concentration of X in the cubic phase. A relationship between Kbl/w and KQ/w can be derived if the volumetric portion of water in the cubic phase as well as the concentration of X in the water domain of the cubic phase are known. The former can be determined by means of X-ray diffraction. If it is assumed that the concentration of X in the water domain in the cubic phase is [X]w, i.e. the same as in the water phase, the following relationship can be obtained […]
Kbl/w={KQ/w−fw}/{1−fw} (4) in which fw is a volumetric portion of water in the cubic phase.
Clomethiazole (CMZ) is a drug which at a low pH exists in a charged state and at a high pH in a neutral stage. Glyceryl monooleate (Grindsted/Danisco A/S, Brabrand, Denmark), 0.74 ml, was added to each of six vials. Then 0.3 ml water was added to three of the vials, and 0.3 ml citrate buffer, pH 3.4, was added to the remaining three vials. The cubic phase was allowed to be formed overnight. Then 1.0 ml of solutions with different concentrations of CMZ were added to each of the vials.
The contents were analyzed after 120 h with reference to CMZ in the water phase as well as the cubic phase. In this example the constants were vlipid=0.74 ml, v1=0.3 ml, v2=1.0 ml, and fw=0.4. The distribution coefficients Kbl/w were calculated by means of the equations (2) and (4).

Data set [2] can be described thus: Distribution of lidocaine, cubic phase/water, water solution added after the cubic phase has been formed. The format is physicochemical. Conditions: for [X]w: cubic phase formed 24 h at 37° C., then further 24 h.
Data set [3] is described as follows: Distribution of lidocaine, cubic phase/water, simultaneous addition of all the water solution. The data set is classed as physicochemical. The following applies: for [X]w: 24 h; for [X]w / Kbl/w: simultaneous addition. The method, then: wherein [X]lipid/[X]water is the concentration of a substance X in the lipid and the water portion of the system, respectively. In order to be able to determine Kbl/w several methods can be applied. […] Kbl/w ={[…] which [X]w is the concentration of X in the water phase at equilibrium. […] Then 0.5 ml of the respective buffer solution was added to the vials.

The conditions of data set [4]: for [X]w: 72 h; for Kbl/w: equation 2, 72 h. The text has this: wherein [X]lipid/[X]water is the concentration of a substance X in the lipid and the water portion of the system, respectively. In order to be able to determine Kbl/w several methods can be applied. If vlipid is the lipid volume, v1 is the volume of water solution without the substance X, and v2 is the volume of water solution with the substance X in a concentration of [X]0 mol/liter, the distribution coefficient can be expressed as
Kbl/w ={v2([X]0−[X]w)/[X]w−v1}/vlipid (2),
in which [X]w is the concentration of X in the water phase at equilibrium. Equation 2 can be used if only the water phase and not the lipid phase is analyzed with reference to its content of X.
Glyceryl monooleate, 2 ml, was weighed into three vials, 6 ml of a water solution with 0.033, 0.067, or 0.10 mol NaCl per liter then being added to one of the three vials.
After 72 h the NaCl contents in the three vials were determined by means of conductometrical analysis of the water phases. In this example the constants were vlipid=2 ml, v1=0 ml, and v2=6 ml. The distribution coefficient Kbl/w was calculated by means of equation 2.

[5] abbreviates: citrate buffer pH 3.4, system I, [X]0 0.28 mg/ml.
The mark [6] stands for this setting: citrate buffer pH 3.4, system II, [X]0 1.5 mg/ml.
[7] abbreviates: citrate buffer pH 3.4, system III, [X]0 3.0 mg/ml.
Setting [8] is: water, system I, [X]0 0.28 mg/ml.
[9] abbreviates: water, system II, [X]0 1.5 mg/ml.
Setting [10] is: water, system III, [X]0 3.0 mg/ml.

Molecules are shown by their SMILES. Where two headings read alike, the source gives them in different places.

Regarding `Cc1ncsc1CCCl` [Clomethiazole], in data set [1] (setting [5]), the “Kbl/w, eq. (2)” value came to 28.4; the “[X]w, concentration in the water phase at equilibrium” value (“[X]w, concentration” below) was 0.014 mg/mL; the “citrate, [X]Q, concentration in the cubic phase” value (from here on “citrate, [X]Q, concentration”) came out at 0.243 mg/mL; the “Kbl/w, eq. (4)” value came out at 28.2. Also, in data set [1] (setting [6]), the “Kbl/w, eq. (2)” value stood at 32.0; the “[X]w, concentration” value was found to be 0.067 mg/mL; the “citrate, [X]Q, concentration” value came out at 1.188 mg/mL; the “Kbl/w, eq. (4)” value was 28.9. Also, in data set [1] (setting [7]), the “Kbl/w, eq. (2)” value came out at 31.5; the “[X]w, concentration” value came to 0.136 mg/mL; the “citrate, [X]Q, concentration” value is 2.366 mg/mL; the “Kbl/w, eq. (4)” value was found to be 28.3. Further, in data set [1] (setting [8]), the “Kbl/w, eq. (2)” value amounted to 57.0; the “[X]Q, concentration in the cubic phase” value came to 0.243 mg/mL; the “[X]w, concentration” value amounted to 0.0072 mg/mL; the “kbl/w, eq. (4)” value is 55.6. Besides, in data set [1] (setting [9]), the “Kbl/w, eq. (2)” value is on record as 57.9; the “[X]Q, concentration in the cubic phase” value turned out to be 1.286 mg/mL; the “[X]w, concentration” value was 0.038 mg/mL; the “kbl/w, eq. (4)” value came to 55.7. Also, in data set [1] (setting [10]), the “Kbl/w, eq. (2)” value turned out to be 57.9; the “[X]Q, concentration in the cubic phase” value is 2.463 mg/mL; the “[X]w, concentration” value stood at 0.076 mg/mL; the “kbl/w, eq. (4)” value is reported as 53.3.

`CCN(CC)CC(=O)Nc1c(C)cccc1C` [Lidocaine]: the “[X]w” value in data set [2] (pH 4, [X]0 1.00 mg/ml) was determined as 0.66 mg/mL; in data set [2] (pH 7, [X]0 1.00 mg/ml) it was 0.22 mg/mL; in data set [2] (pH 10, [X]0 1.00 mg/ml), 0.073 mg/mL; in data set [3] (pH 4, [X]0 1.00 mg/ml) it was 0.68 mg/mL; in data set [3] (pH 7, [X]0 1.00 mg/ml), 0.21 mg/mL; in data set [3] (pH 10, [X]0 1.00 mg/ml) it was 0.073 mg/mL. Besides, the Kbl/w in data set [2] (pH 4, equation 2, solution added after cubic phase formed) was 0.8; in data set [2] (pH 7, equation 2, solution added after cubic phase formed) it was 8.4; in data set [2] (pH 10, equation 2, solution added after cubic phase formed), 31.2; in data set [3] (pH 4, equation 2, 24 h), 0.7; in data set [3] (pH 7, equation 2, 24 h), 8.9; in data set [3] (pH 10, equation 2, 24 h) it was 31.2. The “Kbl/w(charged)” value in data set [3] (charged form, from pH 4) is on record as 0.7. In data set [3] (uncharged form, from pH 10), the “Kbl/w(uncharged)” value is on record as 31.2.

Take `[Cl-].[Na+]` [NaCl]: the “[X]w” value in data set [4] ([X]0 0.033 mol/liter) came out at 0.036 mol/L; in data set [4] ([X]0 0.067 mol/liter), 0.071 mol/L; in data set [4] ([X]0 0.100 mol/liter) it was 0.106 mol/L. The Kbl/w in data set [4] ([X]0 0.033 mol/liter) was −0.25; in data set [4] ([X]0 0.067 mol/liter) it was −0.17; in data set [4] ([X]0 0.100 mol/liter) it was −0.17.

The record behind these values is patent publication US20020006436A1, “USE OF A LIQUID CRYSTALLINE PHASE FOR DETERMINING THE DISTRIBUTION OF A CHEMICAL SUBSTANCE BETWEEN A HYDROPHOBIC AND A HYDROPHILIC ENVIRONMENT” (priority 1996, published 2002).
